Read-outs that look alike come from different tables or passages of the source. Starred links: 1 amine or outer side, 2 acyl side, 3 side chain; linkers in the order of their positions; H or OH if unused. Positions of bridges follow the written chain, without caps; N, C: chain ends. Non-standard residues stand in square brackets, D forms with d. Residues, ends and D or L forms follow the SMILES beside them. Groups on a side chain read outwards from the residue. *: point of attachment. Ala(1-CH2CO2H-4-piperidyl) = N[C@@H](CC1CCN(CC(=O)O)CC1)C(=O)O; X4 = CN(C)C(=O)Cn1cc(-c2ccc(C[C@H](N[*:1])C(=O)[*:2])cc2)cn1; Phe(3-OCH2COOH) = N[C@@H](Cc1cccc(OCC(=O)O)c1)C(=O)O; Phe(4-COOH) = N[C@@H](Cc1ccc(C(=O)O)cc1)C(=O)O; Piperazinyl(4-CH2COOH) = O=C(O)CN1CCN(*)CC1; Gly(Nα-CH2CH2CONH2) = NC(=O)CCNCC(=O)O; Gly(decyl) = CCCCCCCCCC[C@H](N)C(=O)O; Gly(N(CH2)3COOH) = O=C(O)CCCNCC(=O)O; X1 = CCCCCCC[C@H](N[*:1])C(=O)[*:2]; NMeCha = CN[C@@H](CC1CCCCC1)C(=O)O; NMeF = CN[C@@H](Cc1ccccc1)C(=O)O; 4Pal = N[C@@H](Cc1ccncc1)C(=O)O; Cha = N[C@@H](CC1CCCCC1)C(=O)O; Ahp(2) = CCCCC[C@H](N)C(=O)O; NMeA = CN[C@@H](C)C(=O)O; CO = O=C([*:1])[*:2]; NEtG = CCNCC(=O)O; Sar = CNCC(=O)O
Key:
GDF-11 = biological target: T1, GDF-11 (Homo sapiens, UniProt O95390); assay: HepG2 reporter gene assay, Evaluation Procedure (2): 2-concentrations assay, GDF-11 inhibition; format: cell-based
T1 construct: purchased R&D systems 1958-GD-G8/CF
T1 sequence (O95390 299-407): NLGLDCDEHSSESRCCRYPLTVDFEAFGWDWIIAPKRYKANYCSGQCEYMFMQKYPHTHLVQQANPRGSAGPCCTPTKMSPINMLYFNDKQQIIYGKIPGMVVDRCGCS
Outline: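 HepG2 cells carrying the transfected pGL3(CAGA)12-luc reporter, a pGL3 vector with luciferase placed downstream of 12 CAGA repeats, were stimulated with GDF-11 at a final 10 ng/mL together with test peptide. Blank wells received no GDF-11 and no peptide. Plates were incubated 20 to 24 hours at 37°C with 5% CO2. Luminescence from One-Glo substrate was read to calculate percent inhibition.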

Myostatin = biological target: T2, Myostatin (Homo sapiens, UniProt O14793); assay: HepG2 reporter gene assay, Evaluation Procedure (2): 2-concentrations assay, myostatin inhibition; format: cell-based
T2 construct: active myostatin (also called mature myostatin) is a homodimer consisting of two C-terminal growth factor domains; purchased R&D systems 788-G8/CF
T2 sequence (O14793 267-375): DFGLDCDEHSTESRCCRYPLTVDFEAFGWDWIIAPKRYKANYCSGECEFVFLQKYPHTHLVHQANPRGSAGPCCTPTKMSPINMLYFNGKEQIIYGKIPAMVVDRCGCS
Outline: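 Myostatin inhibition was measured in a luciferase reporter assay using HepG2 cells transfected with a pGL3 vector containing 12 CAGA repeats upstream of luciferase. After 20 to 24 hours with 10 ng/mL myostatin, cells received One-Glo:PBS (1:1) at 100 µL/well, were shaken for 5 min, and 20 µL/well was moved to 384-well plates and read on an Envision 2104.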

[1] = HepG2, peptide 30nM, GDF-11 10 ng/mL, read-out: GDF11 Inhibition 30nM
[2] = HepG2, peptide 100nM, GDF-11 10 ng/mL, read-out: GDF11 Inhibition 100nM
[3] = peptide 30nM, Myostatin 10 ng/mL, HepG2, read-out: Myostatin Inhibition 30nM
[4] = peptide 100nM, Myostatin 10 ng/mL, HepG2, read-out: Myostatin Inhibition 100nM

inhibition at 0.03 µM (GDF-11; [1]) [%] | inhibition at 0.1 µM (GDF-11; [2]) [%] | inhibition at 0.03 µM (Myostatin; [3]) [%] | inhibition at 0.1 µM (Myostatin; [4]) [%] | Compound | inhibition at 0.03 µM (GDF-11; HepG2, read-out: GDF11 Inhibition 30nM, peptide 30nM, GDF-11 10 ng/mL) [%] | inhibition at 0.1 µM (GDF-11; HepG2, read-out: GDF11 Inhibition 100nM, peptide 100nM, GDF-11 10 ng/mL) [%] | inhibition at 0.03 µM (Myostatin; HepG2, read-out: Myostatin Inhibition 30nM) [%] | inhibition at 0.1 µM (Myostatin; HepG2, read-out: Myostatin Inhibition 100nM) [%]
0 | 0 | 58 | 84 | CCCCCCC[C@@H]1NC(=O)[C@H](Cc2ccccc2)N(C)C(=O)[C@H](CCCNC(=N)N)NC(=O)[C@H](Cc2ccc(C(=O)O)cc2)NC(=O)[C@H](Cc2ccncc2)NC(=O)CN(C)C(=O)[C@H]([C@@H](C)CC)NC(=O)[C@H](Cc2ccccc2)N(C)C(=O)[C@H](Cc2ccc(O)cc2)NC(=O)[C@H](Cc2c[nH]c3ccccc23)NC(=O)[C@H](C)NC(=O)[C@H](CC2CCN(CC(=O)O)CC2)NC(=O)CSC[C@H](C(=O)O)NC(=O)[C@H](Cc2ccccc2)N(C)C(=O)[C@H](C)N(C)C1=O [Myostatin_99_v232] ({CH2CO}-[Ala(1-CH2CO2H-4-piperidyl)]AWY[NMeF]I[Sar][4Pal][Phe(4-COOH)]R[NMeF][X1][NMeA][NMeF][dC]-OH; thioether N-15) |  |  |  | 
8 | 0 | 50 | 85 | CCCCCCC[C@@H]1NC(=O)[C@H](Cc2ccccc2)N(C)C(=O)[C@H](CCCNC(=N)N)NC(=O)[C@H](Cc2ccc(C(=O)O)cc2)NC(=O)[C@H](CC2CCN(CC(=O)O)CC2)NC(=O)CN(C)C(=O)[C@H]([C@@H](C)CC)NC(=O)[C@H](Cc2ccccc2)N(C)C(=O)[C@H](Cc2ccc(O)cc2)NC(=O)[C@H](Cc2c[nH]c3ccccc23)NC(=O)[C@H](C)NC(=O)CN(CCCC(=O)O)C(=O)CSC[C@H](C(=O)O)NC(=O)[C@H](Cc2ccccc2)N(C)C(=O)[C@H](C)N(C)C1=O [Myostatin_99_v233] ({CH2CO}-[Gly(N(CH2)3COOH)]AWY[NMeF]I[Sar][Ala(1-CH2CO2H-4-piperidyl)][Phe(4-COOH)]R[NMeF][X1][NMeA][NMeF][dC]-OH; thioether N-15) |  |  |  | 
0 | 0 | 91 | 99 | CCCCCCC[C@@H]1NC(=O)[C@H](Cc2ccccc2)N(C)C(=O)[C@H](CCCNC(=N)N)NC(=O)[C@H](Cc2ccc(C(=O)O)cc2)NC(=O)[C@H](Cc2ccncc2)NC(=O)CN(C)C(=O)[C@H]([C@@H](C)CC)NC(=O)[C@H](Cc2ccccc2)N(C)C(=O)[C@H](Cc2ccc(O)cc2)NC(=O)[C@H](Cc2c[nH]c3ccccc23)NC(=O)[C@H](C)NC(=O)CN(CCCC(=O)O)C(=O)CSC[C@H](C(=O)N[C@@H](CC2CCN(CC(=O)O)CC2)C(N)=O)NC(=O)[C@H](Cc2ccccc2)N(C)C(=O)[C@H](C)N(C)C1=O [Myostatin_99_v235] ({CH2CO}-[Gly(N(CH2)3COOH)]AWY[NMeF]I[Sar][4Pal][Phe(4-COOH)]R[NMeF][X1][NMeA][NMeF][dC][Ala(1-CH2CO2H-4-piperidyl)]-NH2; thioether N-15) |  |  |  | 
0 | 0 | 69 | 91 | CCCCC[C@@H]1NC(=O)[C@H](Cc2ccccc2)N(C)C(=O)[C@H](CCCNC(=N)N)NC(=O)[C@H](Cc2ccc(C(=O)O)cc2)NC(=O)[C@H](Cc2cccc(OCC(=O)O)c2)NC(=O)CN(C)C(=O)[C@H]([C@@H](C)CC)NC(=O)[C@H](Cc2ccccc2)N(C)C(=O)[C@H](Cc2ccc(O)cc2)NC(=O)[C@H](Cc2c[nH]c3ccccc23)NC(=O)[C@H](C)NC(=O)[C@H](C)N(C)C(=O)CSC[C@H](C(=O)O)NC(=O)[C@H](Cc2ccccc2)N(C)C(=O)[C@H](C)N(C)C1=O [Myostatin_99_v240] ({CH2CO}-[NMeA]AWY[NMeF]I[Sar][Phe(3-OCH2COOH)][Phe(4-COOH)]R[NMeF][Ahp(2)][NMeA][NMeF][dC]-OH; thioether N-15) |  |  |  | 
0 | 0 | 18 | 58 | CCCCC[C@@H]1NC(=O)[C@H](Cc2ccccc2)N(C)C(=O)[C@H](CCCNC(=N)N)NC(=O)[C@H](Cc2ccc(C(=O)O)cc2)NC(=O)[C@H](Cc2cccc(OCC(=O)O)c2)NC(=O)CN(C)C(=O)[C@H]([C@@H](C)CC)NC(=O)[C@H](Cc2ccccc2)N(C)C(=O)[C@H](Cc2ccc(O)cc2)NC(=O)[C@H](Cc2c[nH]c3ccccc23)NC(=O)[C@H](C)NC(=O)CN(CCC(N)=O)C(=O)CSC[C@H](C(=O)O)NC(=O)[C@H](Cc2ccccc2)N(C)C(=O)[C@H](C)N(C)C1=O [Myostatin_99_v242] ({CH2CO}-[Gly(Nα-CH2CH2CONH2)]AWY[NMeF]I[Sar][Phe(3-OCH2COOH)][Phe(4-COOH)]R[NMeF][Ahp(2)][NMeA][NMeF][dC]-OH; thioether N-15) |  |  |  | 
0 | 6 | 68 | 94 | CCCCCCCCCC[C@@H]1NC(=O)[C@H](CC2CCCCC2)NC(=O)[C@H](CCCNC(=N)N)NC(=O)[C@H](Cc2ccc(C(=O)O)cc2)NC(=O)[C@H](CCCCNC(=O)N2CCN(CC(=O)O)CC2)NC(=O)[C@H]2CCCN2C(=O)[C@H]([C@@H](C)CC)NC(=O)[C@H](CC2CCCCC2)N(C)C(=O)[C@H](Cc2ccc(O)cc2)NC(=O)[C@H](Cc2c[nH]c3ccccc23)NC(=O)[C@@H](CCC(=O)O)NC(=O)[C@H](C)NC(=O)CSC[C@H](C(=O)N2CCN(CC(=O)O)CC2)NC(=O)[C@H](Cc2ccccc2)N(C)C(=O)[C@H](C)N(C)C1=O [Myostatin_99_v247] ({CH2CO}-A[dE]WY[NMeCha]I[dP]K([CO-Piperazinyl(4-CH2COOH)])[Phe(4-COOH)]R[Cha][Gly(decyl)][NMeA][NMeF][dC]-{Piperazinyl(4-CH2COOH)}; thioether N-15) |  |  |  | 
 |  |  |  | CCCCCCC[C@@H]1NC(=O)[C@H](CC2CCCCC2)NC(=O)[C@H](CCCNC(=N)N)NC(=O)[C@H](Cc2ccc(C(=O)O)cc2)NC(=O)[C@H](CCCCNC(=O)N2CCN(CC(=O)O)CC2)NC(=O)[C@H]2CCCN2C(=O)[C@H]([C@@H](C)CC)NC(=O)[C@H](CC2CCCCC2)N(C)C(=O)[C@H](Cc2ccc(O)cc2)NC(=O)[C@H](Cc2ccc(-c3cnn(CC(=O)N(C)C)c3)cc2)NC(=O)[C@@H](CCC(=O)O)NC(=O)[C@H](C)NC(=O)CSC[C@H](C(=O)N2CCN(CC(=O)O)CC2)NC(=O)[C@H](Cc2ccccc2)N(C)C(=O)[C@H](C)N(C)C1=O [Myostatin_99_v256] ({CH2CO}-A[dE][X4]Y[NMeCha]I[dP]K([CO-Piperazinyl(4-CH2COOH)])[Phe(4-COOH)]R[Cha][X1][NMeA][NMeF][dC]-{Piperazinyl(4-CH2COOH)}; thioether N-15) | 0 | 4 | 57 | 88
0 | 0 | 21 | 61 | CCCCCCC[C@@H]1NC(=O)[C@H](Cc2ccccc2)N(C)C(=O)[C@H](CCCNC(=N)N)NC(=O)[C@H](Cc2ccc(C(=O)O)cc2)NC(=O)[C@H](CCCCNC(=O)N2CCN(CC(=O)O)CC2)NC(=O)CN(CC)C(=O)[C@H]([C@@H](C)CC)NC(=O)[C@H](CC2CCCCC2)N(C)C(=O)[C@H](Cc2ccc(O)cc2)NC(=O)[C@H](Cc2c[nH]c3ccccc23)NC(=O)[C@@H](CCC(=O)O)NC(=O)[C@H](C)NC(=O)CSC[C@H](C(=O)N2CCN(CC(=O)O)CC2)NC(=O)[C@H](Cc2ccccc2)N(C)C(=O)[C@H](C)N(C)C1=O [Myostatin_99_v258] ({CH2CO}-A[dE]WY[NMeCha]I[NEtG]K([CO-Piperazinyl(4-CH2COOH)])[Phe(4-COOH)]R[NMeF][X1][NMeA][NMeF][dC]-{Piperazinyl(4-CH2COOH)}; thioether N-15) |  |  |  | 
0 | 28 | 100 | 100 | CCCCCCCCCC[C@@H]1NC(=O)[C@H](CC2CCCCC2)NC(=O)[C@H](CCCNC(=N)N)NC(=O)[C@H](Cc2ccc(C(=O)O)cc2)NC(=O)[C@H](Cc2cccc(OCC(=O)O)c2)NC(=O)CN(C)C(=O)[C@H]([C@@H](C)CC)NC(=O)[C@H](Cc2ccccc2)N(C)C(=O)[C@H](Cc2ccc(O)cc2)NC(=O)[C@H](Cc2c[nH]c3ccccc23)NC(=O)[C@H](C)NC(=O)[C@H](CCCCNC(=O)N2CCN(CC(=O)O)CC2)NC(=O)CSC[C@H](C(=O)N2CCN(CC(=O)O)CC2)NC(=O)[C@H](Cc2ccccc2)N(C)C(=O)[C@H](C)N(C)C1=O [Myostatin_99_v259] ({CH2CO}-K([CO-Piperazinyl(4-CH2COOH)])AWY[NMeF]I[Sar][Phe(3-OCH2COOH)][Phe(4-COOH)]R[Cha][Gly(decyl)][NMeA][NMeF][dC]-{Piperazinyl(4-CH2COOH)}; thioether N-15) |  |  |  | 

Reference: patent publication EP4786487A1, “PEPTIDE” (Peptidream Inc, priority 2023, dated 2025)
